The values that follow come from patent USRE36187E, “Acyclic pyrrolo [2,3-d]pyrimidine analogs as antiviral agents” (The Regents of the University of Michigan, priority 1994, dated 1999).

Data set [1] relates to HCMV. The data set is described as follows: HCMV plaque (focus) reduction assay in HFF cells. The data set is classed as cell-based, human cytomegalovirus (Towne strain). As to conditions: in words. The protocol: (§1) The 148 strain of HSV-1 was used in most experiments and was provided by Dr. T. W. Schafer of Schering Corporation. The HF strain of HSV-1 was used in selected experiments and was obtained from Dr. G. H. Cohen, University of Pennsylvania. The Towne strain, plaque-purified isolate Po, of HCMV was a gift of Dr. Mark Stinski, University of Iowa.
Stock HCMV was prepared by infecting HFF cells at a multiplicity of infection (m.o.i.) of less than 0.01 plaque-forming units (p.f.u.) per cell. Cell growth medium was changed every four days until cytopathology was evident in all cells (approximately 21 days). Supernatant fluids were retained as the virus stock. Four days later, the remaining cells were disrupted by three cycles of freeze-thawing and the cell plus medium held as an additional source of virus. Storage was in liquid nitrogen.
(§2) HCMV was titered in 24-well cluster dishes which were planted to contain 5×10^4 HFF cells/well, grown as described above. When the cells were 70 to 80% confluent, 0.2 ml of the virus suspension was added per wall and adsorbed as described above. At least three ten-fold dilutions of each preparation were used. Following virus adsorption, the cell sheets were overlayed with 0.5% methocel (4000 CPS) in maintenance medium [(MEM) with 1.1 gm/liter NaHCO3, 100 units/ml penicillin G, 100 μg/ml streptomycin, and 5% fetal bovine serum]. The cultures were incubated in a humidified atmosphere of 4% CO2 -96% air. Viral foci were visible 5 to 7 days after infection using at least 10-fold magnification. Cells were fixed and stained by a 10-minute exposure to a 0.1% solution of crystal violet in 20% methanol 7 to 12 days after infection. Microscopic foci were enumerated at 20-fold magnification using a Nikon Profile Projector.
The effect of compounds of the replication of HCMV has been measured using both a plaque (focus) reduction assay and a titer (yield) reduction assay. For the former, HFF cells in 24-well culture dishes were infected with approximately 50 p.f.u. of HCMV per well using the procedures detailed above. Compounds dissolved in growth medium were added in three to six selected concentrations to triplicate wells following virus adsorption. Following incubation at 37° C. for 7 to 10 days, cell sheets were fixed, stained and microscopic foci were enumerated as described above. Drug effects were calculated as a percentage of reduction in number of foci in the presence of each drug concentration compared to the number observed in the absence of drug. DHPG (ganciclovir) was used as a positive control in all experiments.
(§3) Dose-response relationships were used to compare drug effects. These were constructed by linearly regressing the percent inhibition of parameters derived in the preceding sections against log drug concentrations. The 50% inhibitory (I50) concentrations were calculated from the regression lines using the methods described by Goldstein. See Goldstein, A., Biostatistics: An Introductory Text, MacMillan, N.Y., 1964, pp. 156-161. Along with the I50 concentration for visual cytotoxicity, the averaged I50 concentrations are compared to I50 concentrations for inhibition for HCMV or HSV-1 replication. Compounds for which the ratio of cytotoxicity I50 concentrations to antiviral I50 concentrations (in vitro therapeutic index) were greater than 10, were considered for further study.

The subject of the next data set is KB cells. The data set can be described thus: Growth of KB cells (population doubling). It is filed as cell-based, human. The method, then: (§4) Population doubling times and cell viability were measured in uninfected HFF and/or KB cells. Cells were planted in replicate 6-well plastic tissue culture dishes or in 25 cm^2 flasks as described above in part 1. Following an incubation period during which cells attached to the substrate, medium was decanted, the cell sheet rinsed once with HBS, and fresh medium added. The medium consisted of MEM(E) with 1.1 gm NaHCO3 /liter and 10% fetal bovine or calf serum plus appropriate log or half-log concentrations of drug. After additional periods of incubation from 1 to 72 hours at 37° C., cells were harvested by means of 0.05% trypsin plus 0.02% EDTA in a HEPES-buffered salt solution. Cells were enumerated using either a Coulter counter or a hemocytometer and viability determining using […] dye exclusion.
In more extensive cytotoxicity testing, the halogenated compounds were tested for effects on the growth of KB cells. Populations doubling times were calculated from the logarithmic portions of growth curves and were as follows: […]

For another data set, the system named is HFF cells. The data set is described as follows: Growth of human diploid fibroblasts (HFF cells). As to conditions: for population doubling of HFF cells: 100 μM, control cells underwent two doublings. The data set is classed as cell-based. The method, then:
as §4
The effect of these compounds on the growth of human diploid fibroblasts (HFF cells) was less pronounced. During a 70-hour incubation, control cells underwent two doublings. […] A 100 μM concentration reduced the number of cells by less than 10%.

Data set [2] deals with HCMV. The data set is described as follows: HCMV titer (yield) reduction assay in HFF cells. The data set is classed as cell-based, human cytomegalovirus (Towne strain). As to conditions: for HCMV titer reduction, fold better than acyclovir: FIG. 1; for HCMV titer reduction activity: in words, FIG. 2 or FIG. 3.
Text: as §1, §2
For titer reduction assays, HFF cells were planted as described above in 24-well cluster dishes or in 25 cm^2 flasks. When monolayers were approximately 70% confluent, HCMV was added at a m.o.i. of 0.5 p.f.u. per cell and adsorbed as detailed above. Compounds dissolved in growth medium were added in one or one-half logarithm 10 dilutions and incubation continued at 37° C. After 7 to 10 days of incubation, culture dishes or flasks were frozen at […] For titer determination, cells were thawed and then subjected to two more cycles of freezing and thawing at 37° C. Serial, one-logarithm10 dilutions of the final suspension were prepared and inoculated onto new cultures of HFF cells. Titer determination was as detailed above in part (1) (b).
as §3

The subject of the next data set is MCMV. The data set can be described thus: Mortality of mice infected with murine cytomegalovirus. The data set is classed as in vivo. The protocol:
Compound UMJD 183 was tested in mice infected with murine cytomegalovirus (MCMV). This animal model has been recognized as having capabilities predictive of efficacy in humans.
(§5) Compound UMJD 183 and the drug ganciclovir (DHPG) were administered to groups of 15 mice each at doses and times of administration shown in Table 3. Each compound at all doses was administered intraperitoneally twice daily for five days beginning at either 6, 24 or 48 hours after virus inoculation. Animals were observed daily and the number dying each day recorded.
^a Animlas were treated i.p. twice daily for 5 days with the doses
stated above. Treatment was initiated at the times indicated following

Data set [3] in a line: Drug toxicity control in uninfected mice. The data set is classed as in vivo. The protocol:
as §5
Even when the compound was administered 48 hours after virus infection, compound UMJD 183 reduced mortality from 80-93% in controls to 40% in the presence of 5.6 mg/kg of the drug. When UMJD 183 was administered sooner, 6 or 24 hours after virus infection, mortality was reduced further to 7 or 20%, respectively.
^d Drug toxicity control. No virus administered.

For data set [4] the following is noted: previously reported; cited from earlier work.
[5] abbreviates: 1.9 mg/kg i.p. twice daily, from 6 h.
The mark [6] stands for this setting: 1.9 mg/kg i.p. twice daily, from 24 h.
Where [7] appears, read: 1.9 mg/kg i.p. twice daily, from 48 h.
[8] abbreviates: 5.6 mg/kg i.p. twice daily, from 6 h.
Setting [9] is: 5.6 mg/kg i.p. twice daily, from 24 h.
Where [10] appears, read: 5.6 mg/kg i.p. twice daily, from 48 h.
[11] abbreviates: 16.7 mg/kg i.p. twice daily, from 6 h.
The mark [12] stands for this setting: 16.7 mg/kg i.p. twice daily, from 24 h.
[13] abbreviates: 16.7 mg/kg i.p. twice daily, from 48 h.
The mark [14] stands for this setting: 50 mg/kg i.p. twice daily, from 6 h.
The mark [15] stands for this setting: 50 mg/kg i.p. twice daily, from 24 h.
Where [16] appears, read: 50 mg/kg i.p. twice daily, from 48 h.

With `Nc1ncnc2c1c(Cl)cn2COCCO` [UMJD 100, 4-Amino-5-chloro-7-(2-hydroxyethoxymethyl)pyrrolo[2,3-d]-pyrimidine], the “activity against HCMV” value with HCMV [1] is “active against HCMV”. Moreover, the “effect on KB cell growth” value in the data set with KB cells (100 μM, in words) is given as “affected KB cell growth to only a minor extent”. In the data set on HFF cells (10 or 32 μM, 70 hours, in words), the “decrease in number of HFF cells” value is “no decrease in the number of cells”.

In the case of `Nc1ncnc2c1c(Br)cn2COCCO` [UMJD 102, 4Amino-5-bromo-7-(2-hydroxyethoxymethyl)pyrrolo[2,3-d]-pyrimidine], in the data set with HCMV [1], the “activity against HCMV” value is “active against HCMV”. Further, the “HCMV titer reduction, fold better than acyclovir” value in the data set with HCMV [2] was “approximately 10 fold”. In addition, the cytostatic effect result in the data set with KB cells (in words) is recorded as “cytostatic”. In addition, the “population doubling of HFF cells” value with HFF cells (70 hours) is recorded as “one population doubling”. The “effect on growth of HFF cells” value in the data set on HFF cells (in words) is given as “more pronounced”.

On to `Nc1ncnc2c1c(I)cn2COCCO` [UMJD 104, 4-Amino-5-iodo-7-(2-hydroxyethoxymethyl)pyrrolo[2,3-d]-pyrimidine], for which the “activity against HCMV” value in the data set on HCMV [1] is “active against HCMV”. In the data set with HCMV [2], the “HCMV titer reduction, fold better than acyclovir” value is reported as “approximately 10 fold”. Moreover, the “population doubling of HFF cells” value in the data set with HFF cells (70 hours) is “one population doubling”. In the data set with HFF cells (in words), the “effect on growth of HFF cells” value is given as “more pronounced”.

For `Nc1ncnc2c1c(Br)cn2COC(CO)CO` [UMJD 183, 4-amino-5-bromo-7-[(1,3-dihydroxy-2-propoxy)methyl]-pyrrolo[2,3-d]pyrimidine], the “HCMV titer reduction activity” value in the data set with HCMV [2] is given as “most active”. Moreover, the “time of KB cell growth in the presence of the drug before slowing or stopping” value in the data set on KB cells (KB cells) is recorded as “up to 20 hours”. Besides, in the data set on KB cells (in words), the “effect on growth of KB cells” value was “growth of KB cells also was inhibited, but to a lesser extent”. The “growth in the presence of up to 32 μM drug” value in the data set on KB cells (up to 32 μM, 50 hours) is given as “at a reduced rate”. The “MDD (Mean Day of Death)” value in the data set with MCMV (setting [5]) is given as 6.2; with MCMV (setting [6]), 4.8; with MCMV (setting [7]) it was 4.8; in the data set on MCMV (setting [8]), 8.0; in the data set with MCMV (setting [9]), 6.3; in the data set with MCMV (setting [10]), 5.5. The “MDD (Mean Day of Death)” value in the data set with MCMV (setting [11]) is listed as 8.7; with MCMV (setting [12]), 7.1; with MCMV (setting [13]) it was 8.4; in the data set with MCMV (setting [14]) it was 10.8; in the data set on MCMV (setting [15]), 8.8; with MCMV (setting [16]), 7.5. The “Mortality Percent” value in the data set on MCMV (setting [5]) was found to be 33%; in the data set on MCMV (setting [6]), 60%; in the data set on MCMV (setting [7]) it was 67%; in the data set with MCMV (setting [8]) it was 7%; with MCMV (setting [9]), 20%; with MCMV (setting [10]) it was 40%. The “Mortality Percent” value with MCMV (setting [11]) is 60%; in the data set on MCMV (setting [12]), 80%; in the data set with MCMV (setting [13]), 87%; with MCMV (setting [14]), 60%; in the data set with MCMV (setting [15]), 93%; with MCMV (setting [16]) it was 97%. The “increase in number of animals surviving” value in the data set on MCMV (5.6 mg/kg i.p., in words) is “highly significant increases in the number of animals surviving the virus infection”. Moreover, in the data set with MCMV (all doses, i.p.), the “effect on life span (mean day of death)” value is recorded as “prolonged life span (increased the mean day of death) at all doses”. Besides, the “MDD (Mean Day of Death), Toxicity” value in data set [3] (16.7 mg/kg, no virus) amounted to 5.0. Moreover, the “deaths in uninfected animals” value in data set [3] (all doses together, i.p.) amounted to 1 death in 60 animals. Moreover, in data set [3] (in words, i.p.), the “toxicity in uninfected animals” value is on record as “virtually no toxicity”.

On to `NC(=S)c1cn(COCCO)c2ncnc(N)c12` [UMJD 229, 4-Amino-7-(2-hydroxyethoxymethyl)pyrrolo[2,3-d]pyrimidine-5-thiocarboxamide], for which, in the data set with HCMV [1], the “activity against HCMV” value is reported as “active against HCMV”.

In the case of `OCC(CO)OCn1cc(Br)c2c(NO)ncnc21` [UMJD 299, 4-hydroxylamino-5-bromo-7-[(1,3-dihydroxy-2-propoxy)methyl]pyrrolo[2,3-d]pyrimidine], the “HCMV titer reduction activity” value in the data set with HCMV [2] is “active and nearly as potent as the 4-amino analogs”.

`OCC(CO)OCn1cc(Cl)c2c(NO)ncnc21` [UMJD 328, 4-hydroxylamino-5-chloro-7-[(1,3-dihydroxy-2-propoxy)methyl]pyrrolo[2,3-d]pyrimidine]: in the data set on HCMV [2], the “HCMV titer reduction activity” value is “active and nearly as potent as the 4-amino analogs”.

For the compound `OCC(CO)OCn1cc(I)c2c(NO)ncnc21` [UMJD 329, 4-hydroxylamino-5-iodo-7-[(1,3-dihydroxy-2-propoxy)methyl]pyrrolo[2,3-d]pyrimidine], the “HCMV titer reduction activity” value with HCMV [2] was “active and nearly as potent as the 4-amino analogs”.

Turning to `NC(=O)c1cn([C@@H]2O[C@H](CO)[C@@H](O)[C@H]2O)c2ncnc(N)c12` [sangivamycin], the “broad spectrum antiviral activity” value in data set [4] was “Broad spectrum antiviral activity”.

On to `N#Cc1cn([C@@H]2O[C@H](CO)[C@@H](O)[C@H]2O)c2ncnc(N)c12` [toyocamycin], for which, in data set [4], the “broad spectrum antiviral activity” value is given as “Broad spectrum antiviral activity”.

With `Nc1ncnc2c1ccn2[C@@H]1O[C@H](CO)[C@@H](O)[C@H]1O` [tubercidin], the “broad spectrum antiviral activity” value in data set [4] is reported as “Broad spectrum antiviral activity”.
